We go through six molecules from ChEMBL document CHEMBL1155367, “Design and synthesis of new stabilized combi-triazenes for targeting solid tumors expressing the epidermal growth factor receptor (EGFR) or its closest homologue HER2” (Bioorg Med Chem Lett, 2009).

For orientation: IC50 means the concentration that gives 50% inhibition. Lower therefore signals inhibition by little substance.

Molecules are shown by their SMILES. Activity calls are given as the source filed them. The rule behind the calls is not given here.

Series [1] addresses Epidermal growth factor receptor (Homo sapiens, UniProt P00533). The series can be described thus: Inhibition of EGFR-mediated poly(L-glutamic acid L-tyrosine) phosphorylation.
A further series relates to NIH3T3. The series can be described thus: Growth inhibition of mouse NIH/3T3 cells expressing erB2 gene. The format is functional, cell-based.
The test system of another series is MDA-MB-468. The series can be described thus: Induction of DNA damage in human MDA-MB-468 cells assessed as tail movements by comet assay. Type of series: functional, cell-based.
A short description of series [2]: Stability assessed as degradation to FD105 at 37 degC by fluorescence. Type of series: physicochemical.

Chain of Epidermal growth factor receptor (P00533 whole entry): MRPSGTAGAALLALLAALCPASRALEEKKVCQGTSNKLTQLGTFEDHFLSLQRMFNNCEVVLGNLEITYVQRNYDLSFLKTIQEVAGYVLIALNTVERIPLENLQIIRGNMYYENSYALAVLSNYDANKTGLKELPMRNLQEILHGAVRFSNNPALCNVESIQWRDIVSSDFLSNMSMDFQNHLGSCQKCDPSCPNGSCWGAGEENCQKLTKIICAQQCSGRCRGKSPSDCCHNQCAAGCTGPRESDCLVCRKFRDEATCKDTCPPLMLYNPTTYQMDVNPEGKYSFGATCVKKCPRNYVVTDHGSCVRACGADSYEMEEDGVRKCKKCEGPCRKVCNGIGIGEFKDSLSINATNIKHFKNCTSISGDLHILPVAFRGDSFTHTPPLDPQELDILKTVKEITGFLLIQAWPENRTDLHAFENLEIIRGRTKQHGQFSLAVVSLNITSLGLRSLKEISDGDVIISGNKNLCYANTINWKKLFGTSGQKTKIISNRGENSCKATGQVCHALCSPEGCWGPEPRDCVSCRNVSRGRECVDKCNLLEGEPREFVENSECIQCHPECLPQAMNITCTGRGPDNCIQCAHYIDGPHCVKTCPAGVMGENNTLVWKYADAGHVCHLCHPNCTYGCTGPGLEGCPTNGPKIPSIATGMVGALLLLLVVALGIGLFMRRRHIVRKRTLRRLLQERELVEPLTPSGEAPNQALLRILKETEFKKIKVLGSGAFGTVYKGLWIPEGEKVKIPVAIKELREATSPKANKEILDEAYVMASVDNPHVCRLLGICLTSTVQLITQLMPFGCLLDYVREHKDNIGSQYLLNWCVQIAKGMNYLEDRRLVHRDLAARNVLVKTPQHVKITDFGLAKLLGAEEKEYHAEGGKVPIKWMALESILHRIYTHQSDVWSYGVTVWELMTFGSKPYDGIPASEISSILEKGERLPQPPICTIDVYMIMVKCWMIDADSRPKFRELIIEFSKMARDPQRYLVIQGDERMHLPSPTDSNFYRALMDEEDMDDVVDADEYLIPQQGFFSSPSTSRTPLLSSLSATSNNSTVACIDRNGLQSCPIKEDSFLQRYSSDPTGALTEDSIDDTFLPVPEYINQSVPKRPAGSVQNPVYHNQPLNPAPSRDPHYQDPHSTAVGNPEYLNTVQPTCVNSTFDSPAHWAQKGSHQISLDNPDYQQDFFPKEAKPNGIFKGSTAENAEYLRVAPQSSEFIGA

Consider `CN(/N=N/c1ccc2ncnc(Nc3cccc(Cl)c3)c2c1)C(=O)Oc1ccc([N+](=O)[O-])cc1`, for which the figures for the IC50 (in series [1]; in the series with NIH3T3) were 770 nM and 3790 nM, respectively. Also, the Activity entry in the series with MDA-MB-468 is “Dose-dependent effect”. Also, the Stability result in series [2] is recorded as “Stable”.

As to `C=COC(=O)N(C)/N=N/c1ccc2ncnc(Nc3cccc(Cl)c3)c2c1`, the IC50 was 720 nM in series [1] and 2370 nM with NIH3T3. For the same molecule, the outcome in the series with MDA-MB-468 was inactive. For the same molecule, in series [2], the Stability result is on record as “Stable”.

In the case of `CC(=O)OCOC(=O)N(C)/N=N/c1ccc2ncnc(Nc3cccc(Cl)c3)c2c1`, the IC50 is 630 nM in series [1] and 1500 nM in the series on NIH3T3. Further, the Activity entry with MDA-MB-468 was “Dose-dependent effect”. For the same molecule, the Stability entry in series [2] was “Stable”.

On to `C=COC(=O)N(CCN(C)C)/N=N/c1ccc2ncnc(Nc3cccc(Cl)c3)c2c1`, for which the IC50 in series [1] was 180 nM; in the series with NIH3T3, 2280 nM. Further, the Activity result in the series on MDA-MB-468 is “Dose-dependent effect”.

On to `CC(=O)OCN(C)/N=N/c1ccc2ncnc(Nc3cccc(Cl)c3)c2c1`, for which, in series [1], the IC50 was determined as 240 nM. Moreover, the Stability entry in series [2] is on record as “Unstable”.

On to `CN(/N=N/c1ccc2ncnc(Nc3cccc(Cl)c3)c2c1)C(=O)OCCl`, for which the IC50 came out at 390 nM in series [1] and 4940 nM with NIH3T3. Besides, the Activity entry in the series on MDA-MB-468 was “Dose-dependent effect”.
